Assay results: patent publication US8809338B2, “1,2,3-triazole-based peptidomimetic integrin inhibitors for the diagnosis and therapy of tumors” (Universita' Degli Studi di Firenze, priority 2010, dated 2014)
Entries after “also recorded” stand apart in the source; their conditions may differ.

Experiments:
[1] = biological target: T1, αvβ5 integrin (Homo sapiens, UniProt P06756+P18084); experiment: Solid-phase receptor binding assay, [125I]-Echistatin competition, αvβ5; conditions: αvβ5 purified from human placenta; competition with [125I]-Echistatin
T1 construct: purified from human placenta; from tissue; host or cells: human placenta
Method: Solid-phase receptor binding assay. [^125I]-Echistatin, labelled according to the lactoperoxidase method and with a specific activity of 2000 Ci/mmol, and αvβ3 and αvβ5 integrins, purified from human placenta, are used for the in vitro assays. Purified αvβ3 and αvβ5 receptors are respectively diluted to 500 ng/mL and 1000 ng/mL in 20 mM Tris (pH 7.4), 150 mM NaCl, 2 mM CaCl2, 1 mM MgCl2, 1 mM MnCl2. An amount of the diluted receptor solutions (100 μL/well) is added to a 96-well microtiter plate (Optiplate-96 HB, PerkinElmer Life Sciences, Boston, Mass.) and incubated at 4° C. for 16 h. Then, the plate is washed once with an incubation buffer [20 mM Tris (pH 7.4), 150 mM NaCl, 2 mM CaCl2, 1 mM MgCl2, 1 mM MnCl2, 1% BSA] and incubated for additional 2 h at room temperature. […] After an incubation period of 3 h at room temperature, the plate is washed three times with the incubation buffer, then the radioactivity is measured in a plate counter Top-Count NXT (Perkin Elmer Life Sciences, Boston, Mass.) using 200 μL/well of scintillating liquid MicroScint-40 (PerkinElmer Life Sciences, Boston, Mass.). […] IC50 values are determined by fitting the binding inhibition data with a non-linear regression, using the GraphPad Prism 4.0 software package (GraphPad Prism, San Diego, Calif.). […]

[2] = biological target: T2, αvβ3 integrin (Homo sapiens, UniProt P05106+P06756); experiment: Solid-phase receptor binding assay, [125I]-Echistatin competition, αvβ3; conditions: for IC50: αvβ3 purified from human placenta, competition with [125I]-Echistatin
T2 construct: purified from human placenta; from tissue; host or cells: human placenta
Method: Solid-phase receptor binding assay. [^125I]-Echistatin, labelled according to the lactoperoxidase method and with a specific activity of 2000 Ci/mmol, and αvβ3 and αvβ5 integrins, purified from human placenta, are used for the in vitro assays. Purified αvβ3 and αvβ5 receptors are respectively diluted to 500 ng/mL and 1000 ng/mL in 20 mM Tris (pH 7.4), 150 mM NaCl, 2 mM CaCl2, 1 mM MgCl2, 1 mM MnCl2. An amount of the diluted receptor solutions (100 μL/well) is added to a 96-well microtiter plate (Optiplate-96 HB, PerkinElmer Life Sciences, Boston, Mass.) and incubated at 4° C. for 16 h. Then, the plate is washed once with an incubation buffer [20 mM Tris (pH 7.4), 150 mM NaCl, 2 mM CaCl2, 1 mM MgCl2, 1 mM MnCl2, 1% BSA] and incubated for additional 2 h at room temperature. The plate is treated twice with the same buffer, and competitive binding experiments are carried out with a fixed concentration of [^125I]-Echistatin (0.05 nM and 0.1 nM for αvβ3 and αvβ5 respectively) and concentrations of the test compounds ranging from 0.01 nM to 100 μM. All the assays are carried out in triplicate at a final volume of 0.2 mL, each containing the following species: 0.05 mL of [^125I]-Echistatina, 0.04 mL of the test compounds, and 0.11 mL of the incubation buffer. Non-specific binding is defined as the [^125I]-Echistatin bound in the presence of excess (1 μM) of non-labelled echistatin. After an incubation period of 3 h at room temperature, the plate is washed three times with the incubation buffer, then the radioactivity is measured in a plate counter Top-Count NXT (Perkin Elmer Life Sciences, Boston, Mass.) using 200 μL/well of scintillating liquid MicroScint-40 (PerkinElmer Life Sciences, Boston, Mass.). Data analysis. IC50 values are determined by fitting the binding inhibition data with a non-linear regression, using the GraphPad Prism 4.0 software package (GraphPad Prism, San Diego, Calif.). […] The inhibition curves better fitted according to a two-sites model (p<0.05) rather than a single-site model are considered to be significant.

[3] = tested on: A375M melanoma cell line; experiment: Melanoma cell line assay, inhibition of cell adhesion to RGD-containing substrates; assay type: cell-based, human; conditions: compounds at 10, 1.0 and 0.1 μM, FIG. 3
Method: A series of experiments carried out using the flux cytometry technique and specific monoclonal antibodies, allowed for the setup of particular human melanoma cells characterized by an over-expression of integrin receptors. Such cells have been used to test the capability of selected compounds of formula (I) at 10, 1.0 and 0.1 μM concentrations, of inhibiting the binding between these cells and suitable substrates containing the RGD sequence, such as vitronectin, fibronectin, and osteopontin (FIG. 3).
Melanoma cell line assay. The selected cell line for this study is the A375M, which are in vivo selected melanoma cells starting from A375P cells isolated from a amelanotic human melanoma. The expression of the RGD-dependent integrinic pattern, comprising αvβ3, αvβ5, α5β1 integrins, of A375M cells is determined by the flux cytometry technique (FACScanto, Becton & Dickinson) and by RT-PCR. With aim to evaluate the ability of compounds of formula (I) of binding to integrins exposed to the melanoma cells surface, the inhibition of adhesion of such cells to vitronectin, fibronectin and osteopontin are measured. A spectrophotometric evaluation of the cellular content of the culture plates used in the adhesion tests allows for the precision and the correlation of the results obtained in different experiments.

SMILES | IC50 [2] [nM] | also measured
N=C(N)NCCCc1cn(CC(=O)N[C@@H](CC(=O)O)c2ccccc2)nn1 [Compound 38] | 16.4 | IC50 [1]: 1.02 µM
N=C(N)NCCCc1cn(CC(=O)NC(CC(=O)O)c2ccc(F)cc2)nn1 (centres unmarked) [Compound 48] | 215 | IC50 [1]: 9.9 µM; inhibition of adhesion of melanoma cells to fibronectin [3]: minor effect; inhibition of binding of melanoma cells to osteopontin [3]: significantly inhibits; also recorded: minor effect; inhibition of binding of melanoma cells to vitronectin [3]: significantly inhibits
N=C(N)NCCCc1cn(CC(=O)NC(CC(=O)O)c2ccc(F)cc2)nn1 (centres unmarked) [Compound 49] | 101 | 
Cc1ccc(S(=O)(=O)N(CCn2cc(CCNC(=N)N)nn2)CC(=O)O)cc1 [Compound 52] |  | inhibition at 1 µM ([2]; 1 μM concentration): 54%; inhibition at 10 µM ([2]; 10 μM concentration): 77%

Further lines, with some results ahead:

IC50 [2] [nM] | SMILES | also measured
2100 | N=C(N)NCCCc1cn(CC(=O)N[C@@H](CC(=O)O)c2ccc(O)cc2)nn1 [Compound 54] | 
13 | N=C(N)NCCCc1cn(CC(=O)NCCC(=O)O)nn1 [Compound 55] | 
200 | O=C(O)C[C@H](NC(=O)Cn1cc(CCCNCc2nc3ccccc3[nH]2)nn1)c1ccc(F)cc1 [Compound 57] | 
308 | N=C(NCCCc1cn(CC(=O)N[C@@H](CC(=O)O)c2ccccc2)nn1)NCCc1ccc(O)cc1 [Compound 59] | 
